In the oligonucleotide strings, read from the 5' end, every base follows the letter of its sugar. An asterisk marks phosphorothioate; unmarked linkages are phosphodiester. Other units and linkages are bracketed, terminal groups are in braces. A string of capitals states the bases alone. e = 2'-O-(2-methoxyethyl) (MOE); [5mC] = 5-methylcytosine; d = 2'-deoxy (DNA)
What was measured:
Type in all cases: cell-based
human Factor XI mRNA [1] = experiment: Antisense inhibition in HepG2 cells by microwalk gapmers, 75 nM, lipofectin (Example 3); settings: HepG2 cells, 75 nM
Method: These gapmers were designed by creating gapmers shifted slightly upstream and downstream (i.e. “microwalk”) of the original gapmers from Table 3. Gapmers were also created with various motifs, e.g. 5-10-5 MOE, 3-14-3 MOE, and 2-13-5 MOE. These gapmers were tested in vitro. Cultured HepG2 cells at a density of 10,000 cells per well were transfected using lipofectin reagent with 75 nM antisense oligonucleotide. After a treatment period of approximately 24 hours, RNA was isolated from the cells and Factor XI mRNA levels were measured by quantitative real-time PCR. Factor XI mRNA levels were adjusted according to total RNA content, as measured by RIBOGREEN®. Results are presented as percent inhibition of Factor XI, relative to untreated control cells.
The chimeric antisense oligonucleotides in Table 4 were designed as 5-10-5 MOE, 3-14-3 MOE, and 2-13-5 MOE gapmers. The first listed gapmers in Table 4 are the original gapmers (see Table 3) from which the remaining gapmers were designed via microwalk and are designated by an asterisk. The 5-10-5 gapmers are 20 nucleotides in length, wherein the central gap segment is comprised of 10 2′-deoxynucleotides and is flanked on both sides (in the 5′ and 3′ directions) by wings comprising 5 nucleotides each. The 3-14-3 gapmers are 20 nucleotides in length, wherein the central gap segment is comprised of 14 2′-deoxynucleotides and is flanked on both sides (in the 5′ and 3′ directions) by wings comprising 3 nucleotides each. The 2-13-5 gapmers are 20 nucleotides in length, wherein the central gap segment is comprised of 13 2′-deoxynucleotides. The central gap is flanked on the 5′ end with a wing comprising 2 nucleotides and on the 3′ end with a wing comprising 5 nucleotides. For each of the motifs (5-10-5, 3-14-3, and 2-13-5), each nucleotide in the 5′ wing segment and each nucleotide in the 3′ wing segment has a 2′-MOE modification. The internucleoside linkages throughout each gapmer are phosphorothioate (P═S) linkages. All cytidine residues throughout each gapmer are 5-methylcytidines. “Target start site” indicates the 5′-most nucleotide to which the gapmer is targeted. “Target stop site” indicates the 3′-most nucleotide to which the gapmer is targeted. Each gapmer listed in Table 4 is targeted to SEQ ID NO: 1 (GENBANK Accession No. NM_000128.3).

human Factor XI mRNA [2] = experiment: Dose-dependent inhibition in HepG2 cells, lipofectin (Example 4); settings: 16 hours
Method: (§1) Cells were plated at a density of 10,000 cells per well and transfected using lipofectin reagent with 9.375 nM, 18.75 nM, 37.5 nM and 75 nM concentrations of antisense oligonucleotide, as specified in Table 9. After a treatment period of approximately 16 hours, RNA was isolated from the cells and Factor XI mRNA levels were measured by quantitative real-time PCR. Human Factor XI primer probe set RTS 2966 was used to measure mRNA levels. Factor XI mRNA levels were adjusted according to total RNA content, as measured by RIBOGREEN®. Results are presented as percent inhibition of Factor XI, relative to untreated control cells.

human Factor XI mRNA [3] = experiment: Dose-dependent inhibition in HepG2 cells, electroporation (Example 4); settings: 16 hours
Method: as §1, with “The gapmers were also transfected via electroporation and their dose dependent inhibition of human Factor XI mRNA was measured. Cells” for “Cells”, “20,000” for “10,000”, “via electroporation” for “using lipofectin reagent”, “0.7 μM, 2.2 μM, 6.7 μM,” for “9.375 nM, 18.75 nM, 37.5 nM”, “20 μM” for “75 nM”, “10.” for “9.”

[4] = oligonucleotides targeted to nucleobases 1062 to 1091 of SEQ ID NO: 1
[5] = oligonucleotides targeted to nucleobases 738 to 762 of SEQ ID NO: 1
[6] = oligonucleotides targeted to nucleobases 1018 to 1042 of SEQ ID NO: 1

| Substance | percent inhibition of Factor XI mRNA, relative to untreated control cells (human Factor XI mRNA [2]; 9.375 nM) [%] | percent inhibition of Factor XI mRNA, relative to untreated control cells (human Factor XI mRNA [2]; 18.75 nM) [%] | percent inhibition of Factor XI mRNA, relative to untreated control cells (human Factor XI mRNA [2]; 37.5 nM) [%] | percent inhibition of Factor XI mRNA, relative to untreated control cells (human Factor XI mRNA [2]; 75 nM) [%] | percent inhibition of Factor XI mRNA, relative to untreated control cells (human Factor XI mRNA [3]; 0.7 μM) [%] | percent inhibition of Factor XI mRNA, relative to untreated control cells (human Factor XI mRNA [3]; 2.2 μM) [%] | percent inhibition of Factor XI mRNA, relative to untreated control cells (human Factor XI mRNA [3]; 6.7 μM) [%] | percent inhibition of Factor XI mRNA, relative to untreated control cells (human Factor XI mRNA [3]; 20 μM) [%] | other results |
| --- | --- | --- | --- | --- | --- | --- | --- | --- | --- |
| 412215 (antisense eA*eT*eT*e[5mC]*eT*dT*dT*dG*dG*dG*d[5mC]*d[5mC]*dA*dT*dT*e[5mC]*e[5mC]*eT*eG*eG) [compound 412215] |  |  |  |  |  |  |  |  | % inhibition of human Factor XI mRNA levels (human Factor XI mRNA [1]; [4]): 82% |
| 416827 (antisense eT*eA*eT*eG*e[5mC]*d[5mC]*d[5mC]*dT*dT*d[5mC]*dA*dT*dG*dT*d[5mC]*eT*eA*eG*eG*eT) [compound 416827] | 31 | 42 | 62 | 77 | 37 | 68 | 87 | 92 |  |
| 416830 (antisense eT*e[5mC]*e[5mC]*eG*eT*dG*d[5mC]*dA*dT*d[5mC]*dT*dT*dT*d[5mC]*dT*eT*eG*eG*e[5mC]*eA) [compound 416830] |  |  |  |  |  |  |  |  | % inhibition of human Factor XI mRNA levels (human Factor XI mRNA [1]; [5]): 81% |
| 416831 (antisense eA*eT*e[5mC]*e[5mC]*eG*dT*dG*d[5mC]*dA*dT*d[5mC]*dT*dT*dT*d[5mC]*eT*eT*eG*eG*e[5mC]) [compound 416831] |  |  |  |  |  |  |  |  | % inhibition of human Factor XI mRNA levels (human Factor XI mRNA [1]; [5]): 91% |
| 416832 (antisense e[5mC]*eA*eT*e[5mC]*e[5mC]*dG*dT*dG*d[5mC]*dA*dT*d[5mC]*dT*dT*dT*e[5mC]*eT*eT*eG*eG) [compound 416832] |  |  |  |  |  |  |  |  | % inhibition of human Factor XI mRNA levels (human Factor XI mRNA [1]; [5]): 79% |
| 416833 (antisense eT*e[5mC]*eA*eT*e[5mC]*d[5mC]*dG*dT*dG*d[5mC]*dA*dT*d[5mC]*dT*dT*eT*e[5mC]*eT*eT*eG) [compound 416833] |  |  |  |  |  |  |  |  | % inhibition of human Factor XI mRNA levels (human Factor XI mRNA [1]; [5]): 65% |
| 416834 (antisense eG*eT*e[5mC]*eA*eT*d[5mC]*d[5mC]*dG*dT*dG*d[5mC]*dA*dT*d[5mC]*dT*eT*eT*e[5mC]*eT*eT) [compound 416834] |  |  |  |  |  |  |  |  | % inhibition of human Factor XI mRNA levels (human Factor XI mRNA [1]; [5]): 58% |
| 416835 (antisense eA*e[5mC]*e[5mC]*eG*eG*dG*dA*dT*dG*dA*dT*dG*dA*dG*dT*eG*e[5mC]*eA*eG*eA) [compound 416835] |  |  |  |  |  |  |  |  | % inhibition of human Factor XI mRNA levels (human Factor XI mRNA [1]; [6]): 83% |
| 416836 (antisense eA*eA*e[5mC]*e[5mC]*eG*dG*dG*dA*dT*dG*dA*dT*dG*dA*dG*eT*eG*e[5mC]*eA*eG) [compound 416836] |  |  |  |  |  |  |  |  | % inhibition of human Factor XI mRNA levels (human Factor XI mRNA [1]; [6]): 89% |
| 416837 (antisense e[5mC]*eA*eA*e[5mC]*e[5mC]*dG*dG*dG*dA*dT*dG*dA*dT*dG*dA*eG*eT*eG*e[5mC]*eA) [compound 416837] |  |  |  |  |  |  |  |  | % inhibition of human Factor XI mRNA levels (human Factor XI mRNA [1]; [6]): 90% |
| 416839 (antisense eG*eA*eT*eT*e[5mC]*dT*dT*dT*dG*dG*dG*d[5mC]*d[5mC]*dA*dT*eT*e[5mC]*e[5mC]*eT*eG) [compound 416839] |  |  |  |  |  |  |  |  | % inhibition of human Factor XI mRNA levels (human Factor XI mRNA [1]; [4]): 89% |
| 416840 (antisense eA*eG*eA*eT*eT*d[5mC]*dT*dT*dT*dG*dG*dG*d[5mC]*d[5mC]*dA*eT*eT*e[5mC]*e[5mC]*eT) [compound 416840] |  |  |  |  |  |  |  |  | % inhibition of human Factor XI mRNA levels (human Factor XI mRNA [1]; [4]): 85% |
| 416841 (antisense eG*eA*eG*eA*eT*dT*d[5mC]*dT*dT*dT*dG*dG*dG*d[5mC]*d[5mC]*eA*eT*eT*e[5mC]*e[5mC]) [compound 416841] |  |  |  |  |  |  |  |  | % inhibition of human Factor XI mRNA levels (human Factor XI mRNA [1]; [4]): 87% |
| 416843 (antisense eT*eT*eT*eG*eA*dG*dA*dT*dT*d[5mC]*dT*dT*dT*dG*dG*eG*e[5mC]*e[5mC]*eA*eT) [compound 416843] |  |  |  |  |  |  |  |  | % inhibition of human Factor XI mRNA levels (human Factor XI mRNA [1]; [4]): 89% |
| 416895 (antisense eT*eA*eT*dG*d[5mC]*d[5mC]*d[5mC]*dT*dT*d[5mC]*dA*dT*dG*dT*d[5mC]*dT*dA*eG*eG*eT) [compound 416895] | 39 | 57 | 66 | 71 | 0 | 62 | 70 | 91 |  |
| 416896 (antisense eT*eT*eA*dT*dG*d[5mC]*d[5mC]*d[5mC]*dT*dT*d[5mC]*dA*dT*dG*dT*d[5mC]*dT*eA*eG*eG) [compound 416896] | 22 | 39 | 57 | 81 | 12 | 35 | 81 | 89 |  |
| 416945 (antisense eA*eA*dT*dG*dT*d[5mC]*dT*dT*dT*dG*dT*dT*dG*d[5mC]*dA*eA*eG*e[5mC]*eG*e[5mC]) [compound 416945] | 34 | 45 | 62 | 65 | 48 | 70 | 81 | 88 |  |
| 416969 (antisense eG*e[5mC]*d[5mC]*d[5mC]*dT*dT*d[5mC]*dA*dT*dG*dT*d[5mC]*dT*dA*dG*eG*eT*e[5mC]*e[5mC]*eA) [compound 416969] | 17 | 39 | 61 | 76 | 25 | 34 | 86 | 92 |  |
| 416972 (antisense eT*eA*dT*dG*d[5mC]*d[5mC]*d[5mC]*dT*dT*d[5mC]*dA*dT*dG*dT*d[5mC]*eT*eA*eG*eG*eT) [compound 416972] | 32 | 40 | 60 | 69 | 25 | 30 | 48 | 88 |  |
| 416973 (antisense eT*eT*dA*dT*dG*d[5mC]*d[5mC]*d[5mC]*dT*dT*d[5mC]*dA*dT*dG*dT*e[5mC]*eT*eA*eG*eG) [compound 416973] | 60 | 75 | 85 | 87 | 20 | 48 | 86 | 93 |  |

— US20120083522A1, “MODULATION OF INFLAMMATORY RESPONSES BY FACTOR XI” (Isis Pharmaceuitcals, inc., priority 2009, published 2012)
